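At the GI50, growth is halved. TGI: concentration producing complete growth inhibition.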
How the values were obtained:
Test in all cases: NCI-60 cell line screen, 384-well format
[1] = test system: 786-0 renal
[2] = test system: A498 renal
[3] = test system: A549 NSCLC
[4] = test system: ACHN renal
[5] = test system: BT-549 breast
[6] = test system: CAKI-1 renal
[7] = test system: COLO 205 colon
[8] = test system: DU-145 prostate
[9] = test system: EKVX NSCLC
[10] = test system: HCT-116 colon
[11] = test system: HCT-15 colon
[12] = test system: HL-60(TB) leukemia
[13] = test system: HOP-62 NSCLC
[14] = test system: HOP-92 NSCLC
[15] = test system: HS 578T breast
[16] = test system: HT29 colon
[17] = test system: IGROV1 ovarian
[18] = test system: K-562 leukemia
[19] = test system: KM12 colon
[20] = test system: M14 melanoma
[21] = test system: MALME-3M melanoma
[22] = test system: MCF7 breast
[23] = test system: MDA-MB-231 breast
[24] = test system: MDA-MB-435 melanoma
[25] = test system: MDA-MB-468 breast
[26] = test system: MOLT-4 leukemia
[27] = test system: NCI-H226 lung
[28] = test system: NCI-H23 lung
[29] = test system: NCI-H322M lung
[30] = test system: NCI-H460 NSCLC
[31] = test system: NCI-H522 lung
[32] = test system: OVCAR-3 ovarian
[33] = test system: OVCAR-4 ovarian
[34] = test system: OVCAR-5 ovarian
[35] = test system: OVCAR-8 ovarian
[36] = test system: PC-3 prostate
[37] = test system: RXF 393 renal
[38] = test system: SF-268 CNS
[39] = test system: SF-295 CNS
[40] = test system: SF-539 CNS
[41] = test system: SK-MEL-2 melanoma
[42] = test system: SK-MEL-28 melanoma
[43] = test system: SK-MEL-5 melanoma
[44] = test system: SK-OV-3 ovarian
[45] = test system: SN12C renal
[46] = test system: SNB-19 CNS
[47] = test system: SNB-75 CNS
[48] = test system: SR leukemia
[49] = test system: SW-620 colon
[50] = test system: T-47D breast
[51] = test system: TK-10 renal
[52] = test system: U251 glioblastoma
[53] = test system: UACC-257 melanoma
[54] = test system: UACC-62 melanoma
[55] = test system: UO-31 renal

SMILES: Cn1cc(Nc2nccc(-c3ccc4c(c3)CN(C3COC3)CC[C@H]4NC(=O)c3cn(C(C)(C)C)nn3)n2)cn1
- GI50 [1]: > 100 µM
- TGI [1]: > 100 µM
- GI50 [2]: > 100 µM
- TGI [2]: > 100 µM
- GI50 [3]: 60.9 µM
- TGI [3]: > 100 µM
- GI50 [4]: 41.9 µM
- TGI [4]: > 100 µM
- GI50 [5]: 51.6 µM
- TGI [5]: > 100 µM
- GI50 [6]: 44.7 µM
- TGI [6]: > 100 µM
- GI50 [7]: 37.7 µM
- TGI [7]: > 100 µM
- GI50 [8]: > 100 µM
- TGI [8]: > 100 µM
- GI50 [9]: 28 µM
- TGI [9]: > 100 µM
- GI50 [10]: 44.5 µM
- TGI [10]: > 100 µM
- GI50 [11]: > 100 µM
- TGI [11]: > 100 µM
- GI50 [12]: 35.1 µM
- TGI [12]: > 100 µM
- GI50 [13]: > 100 µM
- TGI [13]: > 100 µM
- GI50 [14]: 52.7 µM
- TGI [14]: > 100 µM
- GI50 [15]: 84.7 µM
- TGI [15]: > 100 µM
- GI50 [16]: 32.1 µM
- TGI [16]: > 100 µM
- GI50 [17]: 18.6 µM
- TGI [17]: 54.4 µM
- GI50 [18]: 11.2 µM
- TGI [18]: 24.6 µM
- GI50 [19]: 56 µM
- TGI [19]: > 100 µM
- GI50 [20]: 36.5 µM
- TGI [20]: > 100 µM
- GI50 [21]: 45.5 µM
- TGI [21]: > 100 µM
- GI50 [22]: 20.8 µM
- TGI [22]: > 100 µM
- GI50 [23]: 78.1 µM
- TGI [23]: > 100 µM
- GI50 [24]: 43.2 µM
- TGI [24]: > 100 µM
- GI50 [25]: 23.7 µM
- TGI [25]: > 100 µM
- GI50 [26]: 15.3 µM
- TGI [26]: 29.4 µM
- GI50 [27]: 33 µM
- TGI [27]: > 100 µM
- GI50 [28]: 30.2 µM
- TGI [28]: > 100 µM
- GI50 [29]: 68 µM
- TGI [29]: > 100 µM
- GI50 [30]: 44.2 µM
- TGI [30]: > 100 µM
- GI50 [31]: 22.1 µM
- TGI [31]: 74 µM
- GI50 [32]: 60.9 µM
- TGI [32]: > 100 µM
- GI50 [33]: 54.4 µM
- TGI [33]: > 100 µM
- GI50 [34]: 61.5 µM
- TGI [34]: > 100 µM
- GI50 [35]: > 100 µM
- TGI [35]: > 100 µM
- GI50 [36]: > 100 µM
- TGI [36]: > 100 µM
- GI50 [37]: 11.4 µM
- TGI [37]: 54.1 µM
- GI50 [38]: > 100 µM
- TGI [38]: > 100 µM
- GI50 [39]: > 100 µM
- TGI [39]: > 100 µM
- GI50 [40]: 49.2 µM
- TGI [40]: > 100 µM
- GI50 [41]: 66.3 µM
- TGI [41]: > 100 µM
- GI50 [42]: 37.1 µM
- TGI [42]: > 100 µM
- GI50 [43]: 27.3 µM
- TGI [43]: > 100 µM
- GI50 [44]: 29.5 µM
- TGI [44]: > 100 µM
- GI50 [45]: 46.7 µM
- TGI [45]: > 100 µM
- GI50 [46]: > 100 µM
- TGI [46]: > 100 µM
- GI50 [47]: 45.8 µM
- TGI [47]: > 100 µM
- GI50 [48]: 12.9 µM
- TGI [48]: 27.1 µM
- GI50 [49]: 48.5 µM
- TGI [49]: > 100 µM
- GI50 [50]: 30.9 µM
- TGI [50]: > 100 µM
- GI50 [51]: 70.8 µM
- TGI [51]: > 100 µM
- GI50 [52]: > 100 µM
- TGI [52]: > 100 µM
- GI50 [53]: 43.4 µM
- TGI [53]: > 100 µM
- GI50 [54]: 27.3 µM
- TGI [54]: > 100 µM
- GI50 [55]: 48 µM
- TGI [55]: > 100 µM
